Measured values published in US7803795B2, “Phthalazine derivatives as parp inhibitors” (Janssen Pharmaceutica N.V., priority 2004, dated 2010).

Biological target: T1, TANK-2 enzyme (Homo sapiens, UniProt Q9H2K2)
T1 construct: His tag (inferred from capture on a Ni-coated plate); made in house
T1 sequence (Q9H2K2 1-1166): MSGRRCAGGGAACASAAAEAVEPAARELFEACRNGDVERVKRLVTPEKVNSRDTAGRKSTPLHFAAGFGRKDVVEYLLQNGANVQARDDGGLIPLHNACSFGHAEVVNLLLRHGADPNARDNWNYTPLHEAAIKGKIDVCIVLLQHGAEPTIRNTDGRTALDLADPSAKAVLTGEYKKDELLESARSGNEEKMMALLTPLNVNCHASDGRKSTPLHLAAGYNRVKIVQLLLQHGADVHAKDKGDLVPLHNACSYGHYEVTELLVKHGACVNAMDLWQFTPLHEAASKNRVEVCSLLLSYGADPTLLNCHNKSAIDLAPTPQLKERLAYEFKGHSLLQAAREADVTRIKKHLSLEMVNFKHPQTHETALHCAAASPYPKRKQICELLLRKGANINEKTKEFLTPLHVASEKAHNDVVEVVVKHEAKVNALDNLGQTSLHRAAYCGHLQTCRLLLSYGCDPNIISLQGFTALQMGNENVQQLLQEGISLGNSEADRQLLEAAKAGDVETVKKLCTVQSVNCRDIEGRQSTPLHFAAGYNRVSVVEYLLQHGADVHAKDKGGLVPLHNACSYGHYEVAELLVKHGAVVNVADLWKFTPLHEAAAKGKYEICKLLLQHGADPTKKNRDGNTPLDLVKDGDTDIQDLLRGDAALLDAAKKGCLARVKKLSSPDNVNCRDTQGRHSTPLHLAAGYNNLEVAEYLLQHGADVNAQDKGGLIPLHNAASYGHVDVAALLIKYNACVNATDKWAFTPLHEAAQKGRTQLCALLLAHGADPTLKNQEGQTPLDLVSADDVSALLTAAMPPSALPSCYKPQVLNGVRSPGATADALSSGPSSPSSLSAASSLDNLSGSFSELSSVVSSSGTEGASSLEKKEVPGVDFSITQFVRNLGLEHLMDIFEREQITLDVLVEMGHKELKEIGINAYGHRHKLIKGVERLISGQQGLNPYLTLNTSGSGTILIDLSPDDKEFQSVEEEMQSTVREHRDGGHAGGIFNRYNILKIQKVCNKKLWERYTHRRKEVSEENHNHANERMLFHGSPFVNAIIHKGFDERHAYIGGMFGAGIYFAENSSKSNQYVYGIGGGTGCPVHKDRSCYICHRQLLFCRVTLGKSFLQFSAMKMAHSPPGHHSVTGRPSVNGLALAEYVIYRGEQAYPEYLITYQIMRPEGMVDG
Test: in vitro Scintillation Proximity Assay (SPA) for TANK-2 inhibitory activity
Format: biochemical
Procedure: In Vitro Scintillation Proximity Assay (SPA) for Tank-2 Inhibitory Activity
Compounds of the present invention were tested in an in vitro assay based on SPA technology with Ni Flash plates (96 or 384 well).
In principle, the assay relies upon SPA technology for the detection of auto-poly(ADP-ribosylation of TANK-2 protein using [^3H]-nicotinamide adenine dinucleotide ([^3H]-NAD^+) as ADP-ribosyl donor.
A stock solution of [^3H]-NAD^+/NAD was made by adding 64.6 μl of [^3H]-NAD^+ (0.1 mCi/ml, supplier: Perkin Elmer) and 46.7 μl NAD-stock (10.7 mM, stored at −20° C., supplier Roche) to 1888.7 μl assay buffer (60 mM Tris/HCl, pH 7.4; 0.9 mM DTT; 6 mM MgCl2). The TANK-2 enzyme was produced as described in EP1238063.60 μl of assay buffer, together with 1 μl of compound in DMSO, 20 μl of [^3H]-NAD^+/NAD and 20 μl of TANK-2 enzyme (final concentration 6 μg/ml) was added per well into a 96-well Ni-coated flash plate (Perkin Elmer). After incubation of the mixture for 120 min. at room temperature, the reaction was terminated by adding 60 μl of stopsolution (42.6 mg NAD in 6 ml H2O). The plates were covered with a plate sealer and placed in a TopCountNXT™ (Packard) for scintillation counting. Values were expressed as counts per minute (cpm). For each experiment, controls (containing TANK-2 enzyme and DMSO without compound), a blank incubation (containing DMSO but no TANK-2 enzyme or compound) and samples (containing TANK-2 enzyme and compound dissolved in DMSO) were run in parallel. All compounds tested were dissolved and eventually further diluted in DMSO. […] In each test, the blank value was subtracted from both the control and the sample values. The control sample represented maximal TANK-2 enzyme activity. For each sample, the amount of cpm was expressed as a percentage of the mean cpm value of the controls. When appropriate, IC50-values (concentration of the drug, needed to reduce the TANK-2 enzyme activity to 50% of the control) were computed using linear interpolation between the experimental points just above and below the 50% level. Herein the effects of test compounds are expressed as pIC50 (the negative log value of the IC50-value). As reference compounds, 3-aminobenzamide and 4-amino-1,8-naphthalimide were included to validate the SPA assay. Herein the assay was described using 96-well plates. In the assay using 384-well plates the same final concentrations were used and volumes were adapted.

SMILES | IC50 [µM]
O=c1[nH]nc(NC2CCN(C[C@@H](O)[C@@H]3CCc4ccccc4O3)CC2)c2ccccc12 (relative stereo) [Compound 27] | > 10
O=c1[nH]nc(C2CCN(Cc3ccccc3)CC2)c2ccccc12 [Compound 1] | 8.43
O=c1[nH]nc(N[C@@H]2C[C@H]3CC[C@@H](C2)N3CCCC(c2ccc(F)cc2)c2ccc(F)cc2)c2ccccc12 [Compound 3] | 5.05
O=c1[nH]nc(C2CCNCC2)c2ccccc12 [Compound 4] | > 10
CCOC(=O)N1[C@@H]2CC[C@H]1C[C@H](Nc1n[nH]c(=O)c3ccccc13)C2 [Compound 11] | 2.13
Clc1nnc(NC2CCN(Cc3ccccc3)C2)c2ccccc12 (centres unmarked) [Compound 12] | 9.27
O=c1[nH]nc(C2CCN(CCCOc3ccc(F)cc3)CC2)c2ccccc12 [Compound 13] | > 10
O=c1[nH]nc(N[C@@H]2C[C@H]3CC[C@@H](C2)N3)c2ccccc12 [Compound 15] | > 10
CCOC(=O)N1[C@@H]2CC[C@H]1C[C@H](Nc1nnc(Cl)c3ccccc13)C2 [Compound 24] | 4.37
CCOC(=O)N1CCC(c2n[nH]c(=O)c3ccccc23)CC1 [Compound 25] | > 10
Cc1nnc(N2CCN(CCCC(c3ccc(F)cc3)c3ccc(F)cc3)CC2)c2ccccc12 [Compound 29] | > 10
O=c1[nH]nc(NC2CCCN(CCCC(c3ccc(F)cc3)c3ccc(F)cc3)CC2)c2ccccc12 (centres unmarked) [Compound 30] | 4
O=c1[nH]nc(NC2CCCNCC2)c2ccccc12 (centres unmarked) [Compound 34] | > 10
O=c1[nH]nc(NCC2CCCN(Cc3ccccc3)C2)c2ccccc12 (centres unmarked) [Compound 44] | > 10
O=c1[nH]nc(NC2CCN(CCCCOc3ccccc3)CC2)c2ccccc12 [Compound 46] | > 10
CCOC(=O)N1CCC(Nc2n[nH]c(=O)c3ccccc23)C1 (centres unmarked) [Compound 48] | > 10
O=c1[nH]nc(NCC2CCCN(CCCC(c3ccc(F)cc3)c3ccc(F)cc3)C2)c2ccccc12 (centres unmarked) [Compound 49] | 1.56
CCOC(=O)N1CCCC(Nc2n[nH]c(=O)c3ccccc23)CC1 (centres unmarked) [Compound 50] | > 10
O=c1[nH]nc(NC2CCN(Cc3ccccc3)C2)c2ccccc12 (centres unmarked) [Compound 51] | > 10
O=c1[nH]nc(N2CCN(CCCC(c3ccc(F)cc3)c3ccc(F)cc3)CC2)c2ccccc12 [Compound 52] | 6.55
O=c1[nH]nc(NC2CCCN(Cc3ccccc3)C2)c2ccccc12 (centres unmarked) [Compound 53] | > 10

SMILES | IC50 [µM]
O=c1[nH]nc(N2CCC(c3cccc(C(F)(F)F)c3)C2)c2ccccc12 (centres unmarked) [Compound 55] | 1.5
CCOC(=O)N1CCC(Nc2n[nH]c(=O)c3ccccc23)CC1 [Compound 56] | > 10
Fc1ccc(C(CCCN2CCN(c3nnc(Cl)c4ccccc34)CC2)c2ccc(F)cc2)cc1 [Compound 57] | 5.08
CCOC(=O)N1CCN(c2nnc(Cl)c3ccccc23)CC1 [Compound 58] | 9.02
Clc1nnc(NC2CCN(CCCCOc3ccccc3)CC2)c2ccccc12 [Compound 59] | > 10
CN(c1nc2ccccc2s1)C1CCN(c2nnc(Cl)c3ccccc23)CC1 [Compound 61] | > 10
COc1ccc(CCN2CCC(Nc3n[nH]c(=O)c4ccccc34)CC2)cc1 [Compound 63] | > 10
O=c1[nH]nc(NC2CCN(C/C=C/c3ccccc3)CC2)c2ccccc12 [Compound 65] | > 10
O=c1[nH]nc(C2CCN(C/C=C/c3ccccc3)CC2)c2ccccc12 [Compound 66] | 4.33
O=c1[nH]nc(C2CCN(CCCC(c3ccc(F)cc3)c3ccc(F)cc3)CC2)c2ccccc12 [Compound 67] | > 10
O=c1[nH]nc(C2CCN(CCCCOc3ccccc3)CC2)c2ccccc12 [Compound 68] | > 10
O=c1[nH]nc(C2CCN(c3ncccn3)CC2)c2ccccc12 [Compound 69] | 5.52
Cc1nnc(N2CCN(CCn3c(=O)[nH]c4ccccc4c3=O)CC2)c2ccccc12 [Compound 70] | 3.73
Cc1nnc(N2CCN(CCn3c(=O)[nH]c4ccccc43)CC2)c2ccccc12 [Compound 71] | > 10
Cc1nc2ccccn2c(=O)c1CCN1CCN(c2nnc(C)c3ccccc23)CC1 [Compound 72] | > 10
Cc1nc2sccn2c(=O)c1CCN1CCN(c2nnc(C)c3ccccc23)CC1 [Compound 73] | > 10
Cc1nc2scc(C)n2c(=O)c1CCN1CCN(c2nnc(C)c3ccccc23)CC1 [Compound 74] | 4.69
Cc1nc2n(c(=O)c1CCN1CCN(c3nnc(C)c4ccccc34)CC1)CCS2 [Compound 75] | > 10
Cc1nc2n(c(=O)c1CCN1CCN(c3nnc(C)c4ccccc34)CC1)CCCS2 [Compound 76] | > 10
Clc1nnc(N2CCN(c3ccccc3)CC2)c2ccccc12 [Compound 77] | 8.83
